In the METLIN SMRT retention time set (Domingo-Almenara et al. 2019):

Test: gradient 5% acetonitrile 3 min, to 50% in 2 min, to 85% in 15 min, held 3 min, 100 µL/min
Conditions: column: Zorbax Extend-C18 2.1 x 50 mm; eluents: water / acetonitrile, 0.1% formic acid
In short: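 The system's dead and dwell volumes were 40 μL and 900 μL, with a Zorbax Extend-C18 column (2.1 × 50 mm, 1.8 μm) run at 100 μL/min in water and acetonitrile containing 0.1% formic acid each. Pure standards were analyzed in mixtures of ~100 molecules by HPLC–quadrupole time-of-flight mass spectrometry in positive and negative ionization mode. Retention time was assigned from computationally picked, manually inspected adduct peaks.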

Structure (SMILES)	RP-LC retention time
COc1ccc(-c2csc(NC(=O)Cc3csc(C)n3)n2)cc1	828 s
O=C(c1nc2ccccc2nc1Cl)N1CCN(c2ccccn2)CC1	597 s
Cc1ccc(OCc2nc(C3CN(C(=O)C4(c5ccccc5)CC4)C3)no2)cc1	1030 s
CN(C(=O)CSc1nnc(-c2ccc(Cl)cc2)o1)C1CCCCC1	1090 s
CN1C(=O)COc2cc(-c3noc(C(=O)NCC4CCCO4)n3)ccc21 (configuration not stated)	702 s
Cc1ccc(-c2nc3n(CC(=O)N4CCOCC4)c4c(c(=O)n3n2)CCC4)cc1	699 s
CC(C)c1cc(C(=O)Nc2ccc(F)c(Cl)c2)nn1C1CCS(=O)(=O)C1 (configuration not stated)	997 s
O=c1c2ccccc2nc2n1CCC2O (configuration not stated)	567 s
COc1ccc(Br)cc1CNC(=O)C1CCCN(c2ccc(N3CCOCC3)nn2)C1 (configuration not stated)	668 s
c1ccc(-c2n[nH]c(C3CCCN3)n2)cc1 (configuration not stated)	546 s
O=C(CCC1CCCC1)Nc1ccc(-c2nnc3n2CCCC3)cc1	765 s
CC(C)Cn1ccc2c(cc(C(=O)NCCCN3CCOCC3)n2C)c1=O	594 s
COc1ccc(-c2c(C)noc2NC(C)=O)cc1S(=O)(=O)Nc1ccc(F)c(F)c1	748 s
O=S1(=O)C[C@H](N2CCN(c3ccccn3)CC2)[C@@H](S(=O)(=O)c2ccccc2)C1	598 s
CCOC(=O)c1noc2ncnc(N3CCCCCC3)c12	954 s
Fc1cc(F)cc(-c2nc(-c3cccc(-c4ccn[nH]4)c3)no2)c1	1060 s
Cc1ccn2c(C(C)O)nnc2c1 (configuration not stated)	574 s

More lines, now with the values ahead:

RP-LC retention time	Structure (SMILES)
761 s	CCN1C(=O)CCc2cc(NC(=O)c3n[nH]c4ccccc34)ccc21
639 s	CCN(CCNC(=O)C1CCCN(c2ncnc3c2nc2n3CCCCC2)C1)Cc1ccccc1 (configuration not stated)
580 s	COc1ccc(N2CCN(C(=S)Nc3ccc4nc(N5CCN(C)CC5)cc(C)c4c3)CC2)cc1
595 s	O=S(=O)(c1c(Cl)cccc1Cl)N1CCN(Cc2ccc3c(c2)OCO3)CC1
828 s	Cc1ccc(NC(=O)CN2C(=O)C3CCCCN3c3ccc(S(=O)(=O)N(C)C)cc32)nc1 (configuration not stated)
742 s	CCn1ccc2c(cc(C(=O)Nc3ccccc3C(F)(F)F)n2C)c1=O
579 s	CCCN1CCN(c2ncc3c(n2)CCN(Cc2ccc(OCC)c(OCC)c2)C3)CC1
668 s	CC(C)n1c(N2CCCN(C(=O)c3cccnc3)CC2)cc(=O)n(C(C)C)c1=O
883 s	CCOC(=O)c1[nH]c(C)c(C(=O)C(C)N(C(=O)c2cccc(F)c2)C(C)C)c1C (configuration not stated)
712 s	COc1ccc(Nc2ncccc2S(N)(=O)=O)cc1
769 s	O=C(NC1CCN(c2cc(-c3cccs3)[nH]n2)CC1)c1ccc(F)cc1F
789 s	CC(C)(C)CCN1CCC(F)(c2nc(-c3ccccc3)no2)CC1
753 s	COc1ccc(NC(=O)N2CCC(n3c(-c4ccco4)nc4cccnc43)C2)cc1Cl (configuration not stated)
920 s	COc1cc(NC(=O)N2CCC3(CC2)Nc2ccccc2-n2cccc23)cc(OC)c1OC
1070 s	O=C(Nc1ccc(C(F)(F)F)cc1)c1cnc(-c2ccc(F)cc2)nc1-c1ccncc1
708 s	O=S(=O)(Nc1ccc(Cn2cncn2)cc1)c1cc(F)cc(F)c1
1150 s	Cc1ccc(C)c(N2CCN(S(=O)(=O)c3c(C)sc(C)c3-c3cc(C)[nH]n3)CC2)c1
959 s	Cn1cnc2c(C(=O)NCCC3=CCCCC3)nn(-c3ccc(Cl)cc3)c2c1=O
621 s	CCOC(=O)c1c(C)[nH]c(CCC(=O)NCCN2CCCCCC2)c1C
795 s	Cc1nnc(-c2ccc3ccn(CC(=O)Nc4ccc(F)cc4)c3c2)o1
